pEC50: −log10 of the molar value.
Tests used:
[1] = target: T1, ERRα (Homo sapiens, UniProt P11474); assay: ERRE luciferase reporter assay in HEK293 cells transfected with pcDNA3.1 ERRα; assay type: cell-based; details: HEK293 cells transfected with ERRE reporter construct and pcDNA3.1 ERRα; compound for 24 hours; luciferase activity
T1 construct: expressed in transfected cells; host or cells: HEK293
T1 sequence (P11474 1-423): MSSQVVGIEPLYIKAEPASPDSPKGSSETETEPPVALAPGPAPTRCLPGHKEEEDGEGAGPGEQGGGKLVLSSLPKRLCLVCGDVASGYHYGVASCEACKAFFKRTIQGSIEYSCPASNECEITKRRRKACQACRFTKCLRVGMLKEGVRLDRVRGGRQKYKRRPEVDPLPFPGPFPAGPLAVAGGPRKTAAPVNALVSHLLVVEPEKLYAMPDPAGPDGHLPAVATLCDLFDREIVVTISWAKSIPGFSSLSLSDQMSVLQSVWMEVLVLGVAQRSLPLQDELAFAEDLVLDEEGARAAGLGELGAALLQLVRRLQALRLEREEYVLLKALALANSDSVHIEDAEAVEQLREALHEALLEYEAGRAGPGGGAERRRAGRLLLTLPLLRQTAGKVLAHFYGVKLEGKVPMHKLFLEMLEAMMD
Procedure: (§1) HEK293 cells were maintained in Dulbecco's modified Eagles medium (DMEM) supplemented with 10% fetal bovine serum at 37° C. under […]. […] Cells were transfected with ERRE reporter construct and pcDNA3.1 ERRα or ERRγ. Twenty-four-hours post-transfection, the cells were treated with vehicle or compound (various concentrations) for 24 hours (4 wells per dose). Luciferase activity was measured using the One-Glo Tox luciferase reporter assay system (Promega) and EC50s were calculated using GraphPad Prism software.

[2] = target: T2, ERRγ (Homo sapiens, UniProt P62508); assay: ERRE luciferase reporter assay in HEK293 cells transfected with pcDNA3.1 ERRγ; assay type: cell-based; details: HEK293 cells transfected with ERRE reporter construct and pcDNA3.1 ERRγ; compound for 24 hours; luciferase activity
T2 construct: expressed in transfected cells; host or cells: HEK293
T2 sequence (P62508 1-458): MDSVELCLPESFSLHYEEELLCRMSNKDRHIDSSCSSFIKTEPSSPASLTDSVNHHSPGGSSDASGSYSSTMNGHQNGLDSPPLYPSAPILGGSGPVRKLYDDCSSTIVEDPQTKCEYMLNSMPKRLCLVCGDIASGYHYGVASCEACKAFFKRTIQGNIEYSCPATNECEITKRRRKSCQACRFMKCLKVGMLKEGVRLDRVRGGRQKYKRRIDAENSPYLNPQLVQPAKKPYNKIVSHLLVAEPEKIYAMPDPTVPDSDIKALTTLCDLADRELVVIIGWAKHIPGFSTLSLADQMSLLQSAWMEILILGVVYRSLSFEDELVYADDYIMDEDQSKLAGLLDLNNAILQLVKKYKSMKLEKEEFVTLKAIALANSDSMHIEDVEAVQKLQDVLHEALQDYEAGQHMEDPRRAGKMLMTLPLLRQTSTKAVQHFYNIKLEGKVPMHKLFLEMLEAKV
Procedure: as §1

pEC50 [1] | pEC50 [2] | Compound
5.30 to 6.00 | < 5.30 | FC(F)(F)c1cccc(-c2nnc(-c3ccccc3Cl)o2)c1 [Entry 65, 2-(2-chlorophenyl)-5-(3-(trifluoromethyl)phenyl)-1,3,4-oxadiazole]
5.30 to 6.00 | 5.30 to 6.00 | COc1cccc(-c2nnc(-c3cccc(C(F)(F)F)c3)o2)c1 [Entry 66, 2-(3-methoxyphenyl)-5-(3-(trifluoromethyl)phenyl)-1,3,4-oxadiazole]
5.30 to 6.00 | 5.30 to 6.00 | Nc1ccccc1-c1nnc(-c2ccccc2)o1 [Entry 68, 2-(5-phenyl-1,3,4-oxadiazol-2-yl)aniline]
> 6.00 | > 6.00 | Nc1cccc(-c2nnc(-c3ccccc3)o2)c1 [Entry 69, 3-(5-phenyl-1,3,4-oxadiazol-2-yl)aniline]
> 6.00 | 5.30 to 6.00 | Nc1cc(Br)ccc1-c1nnc(-c2ccccc2)o1 [Entry 72, 5-bromo-2-(5-phenyl-1,3,4-oxadiazol-2-yl)aniline]
5.30 to 6.00 | 5.30 to 6.00 | O=[N+]([O-])c1cccc(-c2nnc(-c3ccccc3)o2)c1 [Entry 81, 2-(3-nitrophenyl)-5-phenyl-1,3,4-oxadiazole]
> 6.00 | > 6.00 | COc1ccc(-c2nnc(-c3ccccc3)s2)cc1 [Entry 1001, 2-(4-methoxyphenyl)-5-phenyl-1,3,4-thiadiazole]
> 6.00 | > 6.00 | Cc1ccc(-c2nnc(-c3ccccc3)s2)cc1 [Entry 1002, 2-phenyl-5-(p-tolyl)-1,3,4-thiadiazole]
> 6.00 | > 6.00 | Cc1ccc(-c2nnc(-c3ccccc3Cl)s2)cc1 [Entry 1003, 2-(2-chlorophenyl)-5-(p-tolyl)-1,3,4-thiadiazole]
> 6.00 | > 6.00 | c1ccc(-c2nnc(-c3ccccc3)s2)cc1 [Entry 1004, 2,5-diphenyl-1,3,4-thiadiazole]
> 6.00 | > 6.00 | Cc1ccc(-c2nnc(-c3ccccc3[N+](=O)[O-])s2)cc1 [Entry 1005, 2-(2-nitrophenyl)-5-(p-tolyl)-1,3,4-thiadiazole]
> 6.00 | > 6.00 | FC(F)(F)c1cccc(-c2nnc(-c3ccccn3)s2)c1 [Entry 1008, 2-(pyridin-2-yl)-5-(3-(trifluoromethyl)phenyl)-1,3,4-thiadiazole]
> 6.00 | > 6.00 | FC(F)(F)c1ccc(-c2nnc(-c3ccccn3)s2)cc1 [Entry 1009, 2-(pyridin-2-yl)-5-(4-(trifluoromethyl)phenyl)-1,3,4-thiadiazole]
> 6.00 | > 6.00 | c1ccc(-c2nnc(-c3cnccn3)s2)cc1 [Entry 1010, 2-phenyl-5-(pyrazin-2-yl)-1,3,4-thiadiazole]
> 6.00 | > 6.00 | COc1cccc(-c2nnc(-c3ccccc3)s2)c1 [Entry 1012, 2-(3-methoxyphenyl)-5-phenyl-1,3,4-thiadiazole]
> 6.00 | > 6.00 | COc1ccccc1-c1nnc(-c2ccccc2)s1 [Entry 1013, 2-(2-methoxyphenyl)-5-phenyl-1,3,4-thiadiazole]
5.30 to 6.00 | 5.30 to 6.00 | FC(F)(F)c1cccc(-c2nnc(-c3ccccc3)s2)c1 [Entry 1014, 2-phenyl-5-(3-(trifluoromethyl)phenyl)-1,3,4-thiadiazole]
> 6.00 | > 6.00 | Cc1ccccc1-c1nnc(-c2ccccc2)s1 [Entry 1015, 2-phenyl-5-(o-tolyl)-1,3,4-thiadiazole]
> 6.00 | > 6.00 | CC(C)(C)c1ccc(-c2nnc(-c3ccccc3[N+](=O)[O-])s2)cc1 [Entry 1016, 2-(4-(tert-butyl)phenyl)-5-(2-nitrophenyl)-1,3,4-thiadiazole]
> 6.00 | > 6.00 | Clc1ccc(-c2nnc(-c3ccccc3)s2)cc1 [Entry 1017, 2-(4-chlorophenyl)-5-phenyl-1,3,4-thiadiazole]
> 6.00 | 5.30 to 6.00 | COc1ccc(-c2nnc(-c3ccc(Br)cc3)s2)cc1 [Entry 1018, 2-(4-bromophenyl)-5-(4-methoxyphenyl)-1,3,4-thiadiazole]
> 6.00 | > 6.00 | COc1ccc(-c2nnc(-c3ccco3)s2)cc1 [Entry 1019, 2-(furan-2-yl)-5-(4-methoxyphenyl)-1,3,4-thiadiazole]

Continued, molecule first:

Compound | pEC50 [1] | pEC50 [2]
Nc1ccc(-c2nnc(-c3ccccc3)o2)cc1 [Entry 70, 4-(5-phenyl-1,3,4-oxadiazol-2-yl)aniline] | > 6.00 | > 6.00
COc1ccc(-c2nnc(-c3ccccc3)o2)c(N)c1 [Entry 71, 5-methoxy-2-(5-phenyl-1,3,4-oxadiazol-2-yl)aniline] | > 6.00 | > 6.00
COc1ccc(-c2nnc(-c3ccccc3N)o2)cc1 [Entry 74, 2-(5-(4-methoxyphenyl)-1,3,4-oxadiazol-2-yl)aniline] | > 6.00 | > 6.00
CC(C)(C)c1ccc(-c2nnc(-c3ccccc3N)o2)cc1 [Entry 75, 2-(5-(4-(tert-butyl)phenyl)-1,3,4-oxadiazol-2-yl)aniline] | > 6.00 | > 6.00
Cc1ccc(-c2nnc(-c3ccccc3[N+](=O)[O-])o2)o1 [Entry 76, 2-(5-methylfuran-2-yl)-5-(2-nitrophenyl)-1,3,4-oxadiazole] | 5.30 to 6.00 | 5.30 to 6.00
O=[N+]([O-])c1ccccc1-c1nnc(-c2ccccc2)o1 [Entry 80, 2-(2-nitrophenyl)-5-phenyl-1,3,4-oxadiazole] | 5.30 to 6.00 | 5.30 to 6.00
COc1ccc(-c2nnc(-c3ccccc3[N+](=O)[O-])o2)cc1 [Entry 82, 2-(4-methoxyphenyl)-5-(2-nitrophenyl)-1,3,4-oxadiazole] | > 6.00 | > 6.00
CC(C)(C)c1ccc(-c2nnc(-c3ccccc3[N+](=O)[O-])o2)cc1 [Entry 83, 2-(4-(tert-butyl)phenyl)-5-(2-nitrophenyl)-1,3,4-oxadiazole] | > 6.00 | > 6.00
O=[N+]([O-])c1ccc(Br)cc1-c1nnc(-c2ccccc2)o1 [Entry 84, 2-(5-bromo-2-nitrophenyl)-5-phenyl-1,3,4-oxadiazole] | < 5.30 | < 5.30
COc1ccc(-c2nnc(-c3ccccc3)o2)c([N+](=O)[O-])c1 [Entry 86, 2-(4-methoxy-2-nitrophenyl)-5-phenyl-1,3,4-oxadiazole] | > 6.00 | > 6.00
COc1ccc([N+](=O)[O-])c(-c2nnc(-c3ccccc3)o2)c1 [Entry 87, 2-(5-methoxy-2-nitrophenyl)-5-phenyl-1,3,4-oxadiazole] | 5.30 to 6.00 | < 5.30
COc1cccc(-c2nnc(-c3ccccc3)o2)c1[N+](=O)[O-] [Entry 88, 2-(3-methoxy-2-nitrophenyl)-5-phenyl-1,3,4-oxadiazole] | > 6.00 | > 6.00
Cc1cccc(-c2nnc(-c3ccccc3)o2)c1[N+](=O)[O-] [Entry 89, 2-(3-methyl-2-nitrophenyl)-5-phenyl-1,3,4-oxadiazole] | > 6.00 | > 6.00
O=[N+]([O-])c1c(Cl)cccc1-c1nnc(-c2ccccc2)o1 [Entry 90, 2-(3-chloro-2-nitrophenyl)-5-phenyl-1,3,4-oxadiazole] | 5.30 to 6.00 | 5.30 to 6.00
O=[N+]([O-])c1ccccc1-c1nnc(-c2ccc(Cl)cc2)o1 [Entry 92, 2-(4-chlorophenyl)-5-(2-nitrophenyl)-1,3,4-oxadiazole] | < 5.30 | < 5.30
c1ccc(-c2nnc(C3CCCCC3)s2)cc1 [Entry 1006, 2-cyclohexyl-5-phenyl-1,3,4-thiadiazole] | > 6.00 | > 6.00
c1ccc(-c2nnc(C34CC5CC(CC(C5)C3)C4)s2)cc1 [Entry 1007, 2-((1S,3S)-adamantan-1-yl)-5-phenyl-1,3,4-thiadiazole] | > 6.00 | > 6.00
COc1ccc(-c2nnc(-c3ccc(C)o3)s2)cc1 [Entry 1020, 2-(4-methoxyphenyl)-5-(5-methylfuran-2-yl)-1,3,4-thiadiazole] | > 6.00 | > 6.00

— US20260274807A1 (University of Health Sciences and Pharmacy in St. Louis, priority 2023, published 2026)
